Test results reported in patent publication US20100047227A1, “NOVEL ANTICANCER CATHEPSIN FORMULATIONS AND ANTICANCER AGENT FOR USE IN COMBINED ANTICANCER THERAPY” (priority 2006, published 2010).
Square brackets hold non-standard residues; d marks the D form. Peptide text beside a SMILES is read from it. * marks the point of attachment. Sta = CC(C)C[C@H](N)[C@@H](O)CC(=O)O; Isovaleryl = CC(C)CC(=O)*; Cbz = O=C(OCc1ccccc1)*; CH2F = FC*

Experiments:
Type in all cases: cell-based
[1] = tested on: human leukemia U937 cells; assay: survival of human leukemia U937 cells; conditions: sole administration, 10 μg/ml
[2] = tested on: human prostate cancer ALVA-41 cells; assay: survival rate of cells (Cell Counting Kit-8), ALVA-41 cells; conditions: for number of living cells: ALVA-41 cells, 20 hours
Procedure: The survival rate of cells was measured by Cell Counting Kit-8 in accordance with a manufacturer's manual. The method will be described briefly as follows. A 96-well (each 100 μl) plate was inoculated with cells (1×10^4 cells) and incubated for 24 hours, and the cells were incubated in a non-serum culture medium Opti-MEM together with a given concentration of each cathepsin purified from rat stomach (References #27 and #60-#62). Thereafter, the kit reagent (10 μl) was added to each well and the wells were incubated for another 1 hour. After incubation, each well was measured at the absorbance of 450 nm with a microplate reader.
(§1) In the figure, an indicating bar scale represents 50 μm. […] In the figure, an indicating bar scale represents 50 μm.
In this experiment, the survival rate of the ALVA-41 cells was measured by incubating the cells with cathepsin E of a given concentration in the presence or absence of pepstatin A (100 μM) at 37° C. and pH 7.4 for 20 hours. The data is represented as a percentage with respect to the value for non-treated cell group. The data were obtained as an average value±SD from the data obtained by four separate experiments. […] In this experiment, the HEK293 cells were incubated together with a given concentration of natural cathepsin E, wild-type recombinant and the active site mutant (D98A/D283A) at 37° C. and pH 7.4 for 20 hours. The survival rate of the cells was measured and represented as a percentage with respect to the value of the non-treated cell group. The data represents an average value±SD from the data obtained by four separate experiments. In the value, *p<0.001 is a corresponding value for the cells treated with the mutant. […] In this experiment, ALVA-41 cells were treated solely with cathepsin E of a given concentration in the same manner as for FIG. 2A and the culture supernatant was recovered, followed by centrifuging to remove the precipitate and transferring a portion ([…]) of the supernatant to a freshly prepared culture of ALVA-41 cells. Thereafter, the cells were incubated at 37° C. and pH 7.4 for 20 hours in the absence (black round mark) or presence (white round mark) of pepstatin A (100 μM) and measured for the survival rate of the cells. The cell survival rate is represented as a percentage with respect to the value of the cells treated with the culture supernatant of the ALVA-41 cells treated with physiological saline. The data is represented as an average value±SD from the data obtained by four separate experiments. […] The cathepsin E activity (on the upper panel) and the cytotoxic activity (on the lower panel) of each column fraction were determined using freshly prepared ALVA-41 cells and a cathepsin E-specific substrate. The cell survival rate of each fraction treated with the protein at a given final concentration is represented as a percentage with respect to the value of the cells treated with physiological saline and as an average value±SD from the data obtained by four separate experiments. The cathepsin E activity is represented as a percentage of the total activity in the culture supernatant, and the data is represented as an average±SD from the data obtained by three separate experiments.

[3] = tested on: human prostate cancer ALVA-41 cells; assay: measurement for apoptosis (morphology, annexin V staining, TUNEL assay), ALVA-41 cells; conditions: for effect of caspase inhibitor on cell death of cancer cells caused by cathepsin E: ALVA-41 cells treated with cathepsin E
Procedure: The cells were measured for a morphological variation of apoptosis by phase contrast microscopy. The cells of prophase and post-phase apoptosis were detected by annexin V staining and TUNEL assay. In order to carry out the annexin V staining of ALVA-41 cells, the cells were exposed to cathepsin E or cathepsin L for 4 hours and centrifuged. After centrifugation, the separated cells were washed twice with PBS and incubated with fluorescein isothiocyanate-conjugated annexin V for 10 minutes at room temperature in a dark place. The cells that were positive as a result of the annexin V staining were then detected with fluorescence microscope. The TUNEL assay was carried out for the incubated tumor cells using Apop Tag Peroxidase Apoptosis Detection Kit and for heterografts using Tumor TACS In Situ Apoptosis Detection Kit.
as §1

**Q.** For `COc1cc([C@@H]2c3cc4c(cc3[C@@H](O[C@@H]3O[C@@H]5CO[C@@H](C)O[C@H]5[C@H](O)[C@H]3O)[C@H]3COC(=O)[C@H]23)OCO4)cc(OC)c1O` [etoposide], which “rate of apoptosis of U937 cells” value [1] is on record?
**A.** approximately 40%

**Q.** `CC(C)CC(=O)N[C@H](C(=O)N[C@H](C(=O)N[C@@H](CC(C)C)[C@@H](O)CC(=O)N[C@@H](C)C(=O)N[C@@H](CC(C)C)[C@@H](O)CC(=O)O)C(C)C)C(C)C` [pepstatin A, reference compound] (Isovaleryl-VV[Sta]A[Sta]-OH) was tested. Which “effect on cytotoxicity of cathepsin E against cancer cells” value ([2]; added to culture medium of ALVA-41 cells, pepstatin A 100 μM) did it give?
**A.** suppressed

**Q.** Which “effect of caspase inhibitor on cell death of cancer cells caused by cathepsin E” value [3] does the source give for `COC(=O)C[C@H](NC(=O)[C@H](C)NC(=O)[C@@H](NC(=O)OCc1ccccc1)C(C)C)C(=O)CF` [z-VAD-fmlk, reference compound] (Cbz-Val-Ala-Asp(OMe)-CH2F) here?
**A.** suppression

**Q.** Which “effect of caspase inhibitor on cell death of cancer cells caused by cathepsin E” value [3] does the source give for DEVD-fmlk [reference compound] here?
**A.** suppression

**Q.** For cathepsin B, which “number of living cells” value ([2]; neutral pH, 10-100 μg/ml) is on record?
**A.** increased the number of living cells in a concentration-dependent way

**Q.** cathepsin D was tested. Which “number of living cells” value ([2]; neutral pH, 10-100 μg/ml) did it give?
**A.** increased the number of living cells in a concentration-dependent way

**Q.** Which “number of living cells” value ([2]; high concentration range (50-100 μg/ml)) does the source give for cathepsin L here?
**A.** decreases the number of the living cells

**Q.** And the “number of living cells” value ([2]; low concentration (10 μg/ml))?
**A.** increase in the number of these living cells

**Q.** And the “staining with annexin V and TUNEL reagent” value ([3]; ALVA-41 cells, 100 μg/ml)?
**A.** negative

**Q.** And the “morphological changes of treated cells” value ([3]; ALVA-41 cells, microscopy, 100 μg/ml)?
**A.** necrosis-like morphological changes
